We go through 4 compounds from ChEMBL document CHEMBL5257156, “Improving binding entropy by higher ligand symmetry? - A case study with human matriptase” (RSC Med Chem, 2023).

pKd, pKi: −log10 of the molar value.

In one assay the target is T1, Suppressor of tumorigenicity 14 protein (Homo sapiens) (UniProt Q9Y5Y6).
T1 sequence (whole entry): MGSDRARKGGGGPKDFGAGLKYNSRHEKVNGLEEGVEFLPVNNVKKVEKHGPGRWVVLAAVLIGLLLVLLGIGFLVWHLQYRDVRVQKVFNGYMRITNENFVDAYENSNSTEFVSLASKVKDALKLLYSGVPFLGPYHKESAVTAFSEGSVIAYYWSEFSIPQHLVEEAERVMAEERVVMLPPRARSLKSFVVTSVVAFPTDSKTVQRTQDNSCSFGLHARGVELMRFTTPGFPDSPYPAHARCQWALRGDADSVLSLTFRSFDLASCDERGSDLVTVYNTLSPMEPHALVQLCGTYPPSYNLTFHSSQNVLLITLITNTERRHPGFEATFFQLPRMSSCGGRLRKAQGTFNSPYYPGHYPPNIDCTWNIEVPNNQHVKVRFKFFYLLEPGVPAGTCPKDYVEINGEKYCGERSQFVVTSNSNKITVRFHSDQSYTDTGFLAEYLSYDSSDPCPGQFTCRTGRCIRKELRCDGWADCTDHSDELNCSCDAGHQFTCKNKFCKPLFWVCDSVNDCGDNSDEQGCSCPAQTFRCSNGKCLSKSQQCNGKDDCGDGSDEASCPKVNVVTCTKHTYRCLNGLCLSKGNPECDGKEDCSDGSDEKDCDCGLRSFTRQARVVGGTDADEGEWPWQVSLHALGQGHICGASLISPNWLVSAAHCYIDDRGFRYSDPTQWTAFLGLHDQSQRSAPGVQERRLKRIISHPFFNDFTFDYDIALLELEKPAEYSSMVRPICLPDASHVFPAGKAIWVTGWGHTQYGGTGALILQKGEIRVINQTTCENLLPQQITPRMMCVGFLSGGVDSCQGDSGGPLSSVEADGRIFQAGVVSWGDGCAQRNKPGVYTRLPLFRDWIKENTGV
The assay is described as follows: Binding affinity to recombinant hexahistidine tagged human MT-SP1 (596 to 855 residues) expressed in Escherichia coli BL21 gold (DE3) cells assessed as change in entropy by ITC analysis. A general note: ITC needs no label: the signal is the heat of the interaction.
`NCc1ccc(Oc2cc(Oc3ccc(CN)cc3)cc(Oc3ccc(CN)cc3)c2)cc1`: the -TdeltaS was -8.15 kcal/mol.
On the same count and under the same terms, the result for `N=C(N)c1ccc(Oc2cc(Oc3ccc(CN)cc3)cc(Oc3ccc(CN)cc3)c2)cc1` reads -9.7 kcal/mol; that for `N=C(N)c1ccc(CCNC(=O)C(C(=O)NCCc2ccc(C(=N)N)cc2)C(=O)NCc2ccc(C(=N)N)cc2)cc1` (stereo not given), -7.19 kcal/mol.
On the same count and under the same terms, the result for `N=C(N)c1ccc(CCNC(=O)CC(=O)NCCc2ccc(C(=N)N)cc2)cc1` reads -4.64 kcal/mol.

For another assay, the target named is T2, Suppressor of tumorigenicity 14 protein (Homo sapiens, UniProt Q9Y5Y6).
T2 sequence (Q9Y5Y6 whole entry): T1 sequence (whole entry)
The assay is described as follows: Inhibition of human matriptase using Mes-D-Pro-Arg-AMC.2TFA as substrate incubated for 10 mins by fluorescence based assay.
In general, pKi refers to −log10 of the Ki, conventionally taken in molar units. `N=C(N)c1ccc(CCNC(=O)C(C(=O)NCCc2ccc(C(=N)N)cc2)C(=O)NCc2ccc(C(=N)N)cc2)cc1` (stereo not given) showed a negative-log Ki (pKi) of 6.41.
As for `N=C(N)c1ccc(CCNC(=O)CC(=O)NCCc2ccc(C(=N)N)cc2)cc1`, the pKi was 5.37.

In a further assay the target is T1, Suppressor of tumorigenicity 14 protein (Homo sapiens). The assay is described as follows: Binding affinity to recombinant hexahistidine tagged human MT-SP1 (596 to 855 residues) expressed in Escherichia coli BL21 gold (DE3) cells assessed as change in enthalpy by ITC analysis.
On to `NCc1ccc(Oc2cc(Oc3ccc(CN)cc3)cc(Oc3ccc(CN)cc3)c2)cc1`, for which the deltaH came out at 1.24 kcal/mol.
The same measure, in the same setting: the result for `N=C(N)c1ccc(Oc2cc(Oc3ccc(CN)cc3)cc(Oc3ccc(CN)cc3)c2)cc1` reads 2.03 kcal/mol; that for `N=C(N)c1ccc(CCNC(=O)C(C(=O)NCCc2ccc(C(=N)N)cc2)C(=O)NCc2ccc(C(=N)N)cc2)cc1` (stereo not given), -1.63 kcal/mol; that for `N=C(N)c1ccc(CCNC(=O)CC(=O)NCCc2ccc(C(=N)N)cc2)cc1`, -3.35 kcal/mol.

The target in the next assay is T2, Suppressor of tumorigenicity 14 protein. The assay is described as follows: Inhibition of recombinant hexahistidine tagged human MT-SP1 (596 to 855 residues) expressed in Escherichia coli BL21 gold (DE3) cells using Boc-Leu-Arg-Arg-AMC as substrate measured every 30 secs for 10 mins by fluorescence based assay.
As for `NCc1ccc(Oc2cc(Oc3ccc(CN)cc3)cc(Oc3ccc(CN)cc3)c2)cc1`, the pKi was 4.74.
Still for that read-out and setting: as for `N=C(N)c1ccc(Oc2cc(Oc3ccc(CN)cc3)cc(Oc3ccc(CN)cc3)c2)cc1`, the figure is 6.11.

A further assay addresses T1, Suppressor of tumorigenicity 14 protein (Homo sapiens). The assay is described as follows: Binding affinity to recombinant hexahistidine tagged human MT-SP1 (596 to 855 residues) expressed in Escherichia coli BL21 gold (DE3) cells assessed as free energy change by ITC analysis.
Take `NCc1ccc(Oc2cc(Oc3ccc(CN)cc3)cc(Oc3ccc(CN)cc3)c2)cc1`: the deltaG was -6.91 kcal/mol.
Still for that read-out and setting: the result for `N=C(N)c1ccc(Oc2cc(Oc3ccc(CN)cc3)cc(Oc3ccc(CN)cc3)c2)cc1` reads -7.67 kcal/mol; that for `N=C(N)c1ccc(CCNC(=O)C(C(=O)NCCc2ccc(C(=N)N)cc2)C(=O)NCc2ccc(C(=N)N)cc2)cc1` (stereo not given), -8.82 kcal/mol.
Same read-out and setting: the result for `N=C(N)c1ccc(CCNC(=O)CC(=O)NCCc2ccc(C(=N)N)cc2)cc1` reads -7.98 kcal/mol.

The target in another assay is T2, Suppressor of tumorigenicity 14 protein. The assay is described as follows: Binding affinity to recombinant hexahistidine tagged human MT-SP1 (596 to 855 residues) expressed in Escherichia coli BL21 gold (DE3) cells […] by ITC analysis.
By pKd is commonly meant the negative decadic logarithm of the Kd, by convention in mol/L. On to `NCc1ccc(Oc2cc(Oc3ccc(CN)cc3)cc(Oc3ccc(CN)cc3)c2)cc1`, for which the negative logarithm of the Kd (pKd) is 4.99.
Still for that read-out and setting: the result for `N=C(N)c1ccc(Oc2cc(Oc3ccc(CN)cc3)cc(Oc3ccc(CN)cc3)c2)cc1` reads 5.60; that for `N=C(N)c1ccc(CCNC(=O)C(C(=O)NCCc2ccc(C(=N)N)cc2)C(=O)NCc2ccc(C(=N)N)cc2)cc1` (stereo not given), 6.41.
The same measure, in the same setting: the result for `N=C(N)c1ccc(CCNC(=O)CC(=O)NCCc2ccc(C(=N)N)cc2)cc1` reads 5.84.
